The numbers were not newly measured in patent US5049550A, “Diadenosine 5', 5'"-p^1, p^4,-tetraphosphate analogs as antithrombotic agents” (Worcester Foundation for Experimental Biology, priority 1988, dated 1991), which cites them from elsewhere.

Entries after “also recorded” stand apart in the source; their conditions may differ.

One series deals with platelets. Conditions: cited from earlier work.
The conditions of series [1]: plasma; cited from earlier work.

`Nc1ncnc2c1ncn2[C@@H]1O[C@H](COP(=O)(O)OP(=O)(O)OP(=O)(O)OC[C@H]2O[C@@H](n3cnc4c(N)ncnc43)[C@H](O)[C@@H]2O)[C@@H](O)[C@H]1O` [AP3 A, diadenosine 5',5'"-p^1, p^3 -triphosphate]: the “effect on platelet aggregation” value with platelets is on record as “gradual aggregation of platelets; also recorded: immediately reversible upon the addition of AP4 A”. Further, the degradation products entry in series [1] is “hydrolysed in plasma to AMP (adenosine monophosphate) and ADP (adenosine diphosphate)”.
